Test results published in patent publication US8399420B2, “Azacytidine analogues and uses thereof” (Mount Sanai School of Medicine, priority 2007, dated 2013).

Tests used:
[1] = test system: Hela mutant cervix carcinoma cells; assay: Cytotoxic activity with or without nucleoside transport inhibitor dipyridamole, MTT assay; assay type: cell-based; details: dipyridamole 10 μM
Method: Dipyridamole was used as an inhibitor of the equilibrative nucleoside transporters hENT1 and hENT2. The cells were seeded in 96-well plates with 5×10^3 cells per well, in RPMI 1640 medium with 2 mM glutamine and 10% FBS. The cells were pre-incubated for 24 hours. Dipyridamole (10 μM) was added to the cells 30 minutes prior to the addition of the test compounds. The test compounds were dissolved in DMSO and further diluted in medium just prior to use. 6 wells were used per test concentration. The cells were incubated with test compound for 72 hours. 20 μl of freshly prepared MTT solution was added to each well and incubated for 4 hours.

[2] = test system: MT-3/ADR resistant breast carcinoma; assay: Cytotoxicity, MTT assay, adriablastin resistant cell line MT-3/ADR; assay type: cell-based; details: concentration range tested up to 100 μM
Method: The cells were seeded in 96-well plates with 5×10^3 cells per well, in RPMI 1640 medium with 2 mM glutamine and 10% FBS. The cells were incubated for 24 hours. The test compounds were dissolved in DMSO and further diluted in medium just prior to use. 6 wells were used per test concentration. The cells were incubated with test compound for 24 hours. 20 μl of freshly prepared MTT solution was added to each well and incubated for 4 hours.

Question: For `Nc1ncn([C@@H]2O[C@H](CO)[C@@H](O)[C@H]2O)c(=O)n1` [Aza-C, 5-azacytidine], which “reduction of activity by addition of dipyridamole” value [1] is on record?
Answer: 3 fold

Question: What about the “activity in the MT-3/ADR resistant cell line” value [2] of the same compound?
Answer: No activity was observed
